Experiment [1] relates to T1, P. expansium laccase.
T1 construct: gene EC 1.10.3.2; native enzyme purified from culture filtrate (ABTS-supplemented medium; ammonium sulfate, DEAE-cellulose, Sephadex G-200); single SDS-PAGE band ~60 kDa; free (soluble) enzyme
Kind of experiment: Lineweaver-Burk. It is filed as biochemical, Penicillium expansum. As to conditions: free enzyme; 0.2-0.8 mM substrate; 0.1 M sodium acetate pH 5.0, 40 °C. The source says: Lineweaver-Burk on P. expansium laccase

Experiment [2] relates to T1, P. expansium laccase. Put plainly: spectrophotometric oxidation assay at […] nm, Lineweaver-Burk. As to conditions: free enzyme; 0.2-0.8 mM substrate; 0.1 M sodium acetate pH 5.0, 40 °C. It is filed as biochemical, Penicillium expansum.

In the case of `Oc1ccccc1O` [catechol], the Km in experiment [1] worked out at 1310 µM.
Regarding `CCn1c(=NN=c2sc3cc(S(=O)(=O)O)ccc3n2CC)sc2cc(S(=O)(=O)O)ccc21` [ABTS], the Km in experiment [2] is 4150 µM.

Source of the values: paper PMC8777717, “Thiolation of Myco-Synthesized Fe3O4-NPs: A Novel Promising Tool for Penicillium expansium Laccase Immobilization to Decolorize Textile Dyes and as an Application for Anticancer Agent” (Journal of Fungi, 2022).
